We go through 25 compounds from patent US11795177B2, “Substituted quinoline analogs as aldehyde dehydrogenase 1A1 (ALDH1A1) inhibitors” (THE UNITED STATES OF AMERICA, AS REPRESENTED BY THE …, priority 2017, dated 2023).

For one experiment, the system named is MIA PaCa-2 cells. The experiment in a line: MIA PaCa2 cell-based assay (1,536-well high-content imaging ALDEFLUOR assay). Also noted: species or system human. The conditions noted are these: ALDEFLUOR BAAA substrate 500 nM, 30 minutes. The procedure, abridged:
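MIA PaCa-2 cells (1,000/well), plated overnight, given BAAA substrate (500 nM) plus Hoechst 33342 (0.5 nM), then compound (16-point, 1.4 nM–47.8 μM final; 0.5% DMSO). After 30 min at 37° C, ALDH activity imaged by high-content microscopy as BAA-retaining (FITC) cells versus Hoechst-stained nuclei.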

Another experiment addresses T1, ALDH1A1 enzyme (Homo sapiens, UniProt P00352).
T1 sequence (P00352 1-501): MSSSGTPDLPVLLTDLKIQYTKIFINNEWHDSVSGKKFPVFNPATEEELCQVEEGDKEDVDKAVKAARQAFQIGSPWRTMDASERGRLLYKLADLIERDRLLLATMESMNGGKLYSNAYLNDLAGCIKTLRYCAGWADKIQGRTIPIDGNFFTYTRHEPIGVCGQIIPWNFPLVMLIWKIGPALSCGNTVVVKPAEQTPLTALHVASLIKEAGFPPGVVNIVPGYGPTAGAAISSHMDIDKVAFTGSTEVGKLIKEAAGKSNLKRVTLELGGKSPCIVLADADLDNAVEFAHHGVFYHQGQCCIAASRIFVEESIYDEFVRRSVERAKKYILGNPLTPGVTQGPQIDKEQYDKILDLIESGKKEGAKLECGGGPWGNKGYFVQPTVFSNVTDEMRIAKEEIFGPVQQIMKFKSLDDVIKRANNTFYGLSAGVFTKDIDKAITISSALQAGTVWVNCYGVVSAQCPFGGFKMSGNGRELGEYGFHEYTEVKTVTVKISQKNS
As to the kind of experiment: ALDH1A1 enzymatic assay (in vitro). It is filed as biochemical. The settings on record: ALDH1A1 enzyme 20 nM, NAD+ 1 mM, propionaldehyde 80 μM; read-out: ALDH1A1 IC50. Summed up:
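ALDH1A1 (20 nM final) in 100 mM HEPES pH 7.5, 0.01% Tween 20 was preincubated 15 min at RT with compound (968 pM–57.2 μM final), then started with 1 mM NAD+ and 80 μM propionaldehyde. NADH fluorescence (ex 340/em 450 nm) followed kinetically for 10 min; change normalized to no-inhibitor and no-enzyme controls for percent inhibition and curve fitting.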

Some results are limits rather than exact numbers.

A word on the IC50: it is the concentration that inhibits the measured activity by half. With `CS(=O)(=O)C1CCN(C(=O)c2cnc3ccc(Cl)cc3c2-c2ccc(C3(C#N)CC3)cc2)CC1` [Example 295, 1-(4-(6-chloro-3-(4-(methylsulfonyl)piperidine-1-carbonyl)quinolin-4-yl)phenyl)cyclopropanecarbonitrile], the IC50 was < 500 nM with MIA PaCa-2 cells (Homo sapiens, 0.5 h) and < 500 nM on ALDH1A1 enzyme.
`N#CC1(c2ccc(-c3c(C(=O)N4CCC(O)(C5CC5)CC4)cnc4ccc(F)cc34)cc2)CC1` [Cpd. 353, 1-(4-(3-(4-cyclopropyl-4-hydroxypiperidine-1-carbonyl)-6-fluoroquinolin-4-yl)phenyl)cyclopropane-1-carbonitrile]: the IC50 in the experiment with MIA PaCa-2 cells (Homo sapiens, 0.5 h) was 1000 to 10000 nM; on ALDH1A1 enzyme it was < 500 nM.
Turning to `COc1ccc2c(N3CCC(C)(C#N)CC3)c(C(=O)N3CCN(S(C)(=O)=O)CC3)cnc2c1` [Example 105, 1-(7-methoxy-3-(4-(methylsulfonyl)piperazine-1-carbonyl)quinolin-4-yl)-4-methylpiperidine-4-carbonitrile], the IC50 in the experiment with MIA PaCa-2 cells (Homo sapiens, 0.5 h) is 1000 to 10000 nM; at ALDH1A1 enzyme, < 500 nM.
The like results for `CS(=O)(=O)C1CCN(C(=O)c2cnc3ccc(F)cc3c2N2CCC3(CC2)OCCO3)CC1` [Example 185, (6-fluoro-4-(1,4-dioxa-8-azaspiro[4.5]decan-8-yl)quinolin-3-yl)(4-(methylsulfonyl)piperidin-1-yl)methanone] were, in that order, 1000 to 10000 nM and < 500 nM.
As to `CN(C)S(=O)(=O)N1CCN(C(=O)c2cnc3cc(F)c(F)cc3c2N2CCC(C)(C#N)CC2)CC1` [Example 177, 4-(4-(4-cyano-4-methylpiperidin-1-yl)-6,7-difluoroquinoline-3-carbonyl)-N,N-dimethylpiperazine-1-sulfonamide], the IC50 in the experiment on MIA PaCa-2 cells (Homo sapiens, 0.5 h) is < 500 nM; at ALDH1A1 enzyme, < 500 nM.
`O=C(c1cnc2ccc(F)cc2c1N1CCC2(CCOC2=O)CC1)N1CCN(C(=O)C2CC2)CC1` [Example 248, 8-(3-(4-(cyclopropanecarbonyl)piperazine-1-carbonyl)-6-fluoroquinolin-4-yl)-2-oxa-8-azaspiro[4.5]decan-1-one]: the half-inhibitory concentration (IC50) with MIA PaCa-2 cells (Homo sapiens, 0.5 h) is 1000 to 10000 nM; at ALDH1A1 enzyme, < 500 nM.
Take `Cc1ccc(C2(C#N)CCN(c3c(C(=O)N4CCN(C(=O)C5CC5)CC4)cnc4ccc(F)cc34)CC2)c(F)c1` [Example 290, 1-(3-(4-(cyclopropanecarbonyl)piperazine-1-carbonyl)-6-fluoroquinolin-4-yl)-4-(2-fluoro-4-methylphenyl)piperidine-4-carbonitrile]: the IC50 is < 500 nM in the experiment on MIA PaCa-2 cells (Homo sapiens, 0.5 h) and < 500 nM on ALDH1A1 enzyme.
Regarding `CN(C)S(=O)(=O)N1CCN(C(=O)c2cnc3c(F)cc(F)cc3c2N2CCC3(CC2)OCCO3)CC1` [Example 162, 4-(6,8-difluoro-4-(1,4-dioxa-8-azaspiro[4.5]decan-8-yl)quinoline-3-carbonyl)-N,N-dimethylpiperazine-1-sulfonamide], the half-maximal inhibitory concentration (IC50) was 500 to 1000 nM in the experiment on MIA PaCa-2 cells (Homo sapiens, 0.5 h) and < 500 nM at ALDH1A1 enzyme.
Turning to `CN(C)S(=O)(=O)N1CCN(C(=O)c2cnc3ccc(F)cc3c2-c2ccc(C(C)(C)C#N)cc2)CC1` [Example 261, 4-(4-(4-(2-cyanopropan-2-yl)phenyl)-6-fluoroquinoline-3-carbonyl)-N,N-dimethylpiperazine-1-sulfonamide], the concentration for half-maximal inhibition (IC50) in the experiment on MIA PaCa-2 cells (Homo sapiens, 0.5 h) was < 500 nM; at ALDH1A1 enzyme it was < 500 nM.
With `CCNC(=O)N1CCN(C(=O)c2cnc3c(F)cc(F)cc3c2N2CCC(C)(C#N)CC2)CC1` [Example 145, 4-(4-(4-cyano-4-methylpiperidin-1-yl)-6,8-difluoroquinoline-3-carbonyl)-N-ethylpiperazine-1-carboxamide], the half-inhibitory concentration (IC50) was > 10000 nM in the experiment with MIA PaCa-2 cells (Homo sapiens, 0.5 h) and 500 to 1000 nM on ALDH1A1 enzyme.
Regarding `CN(C)C(=O)N1CCN(C(=O)c2cnc3ccc(Cl)cc3c2N2CCC(C#N)(c3ccccc3)CC2)CC1` [Cpd. 312, 4-(6-chloro-4-(4-cyano-4-phenylpiperidin-1-yl)quinoline-3-carbonyl)-N,N-dimethylpiperazine-1-carboxamide], the IC50 was < 500 nM with MIA PaCa-2 cells (Homo sapiens, 0.5 h) and < 500 nM at ALDH1A1 enzyme.
Consider `CCOC(=O)N1CCN(C(=O)c2cnc3cc(OC)ccc3c2N2CCC(C)(C#N)CC2)CC1` [Example 108, Ethyl 4-(4-(4-cyano-4-methylpiperidin-1-yl)-7-methoxyquinoline-3-carbonyl)piperazine-1-carboxylate], for which the IC50 is 1000 to 10000 nM with MIA PaCa-2 cells (Homo sapiens, 0.5 h) and < 500 nM on ALDH1A1 enzyme.
The like results for `CC1(O)CCN(C(=O)c2cnc3ccc(F)cc3c2N2CCC(C#N)(c3ccccc3)CC2)CC1` [Cpd. 349, 1-(6-fluoro-3-(4-hydroxy-4-methylpiperidine-1-carbonyl)quinolin-4-yl)-4-phenylpiperidine-4-carbonitrile] were, in that order, < 500 nM and < 500 nM.
The like results for `CC1(C#N)CCN(c2c(C(=O)N3CCN(S(=O)(=O)C4CC4)CC3)cnc3ccccc23)CC1` [Example 98, 1-(3-(4-(cyclopropylsulfonyl)piperazine-1-carbonyl)quinolin-4-yl)-4-methylpiperidine-4-carbonitrile] were, in that order, > 10000 nM and 1000 to 10000 nM.
In the case of `CN(C)C(=O)Cn1cc(NC(=O)c2cnc3ccc(F)cc3c2-c2ccc(C3(C#N)CC3)cc2)cn1` [Cpd. 346, 4-(4-(1-cyanocyclopropyl)phenyl)-N-(1-(2-(dimethylamino)-2-oxoethyl)-1H-pyrazol-4-yl)-6-fluoroquinoline-3-carboxamide], the IC50 in the experiment with MIA PaCa-2 cells (Homo sapiens, 0.5 h) was > 10000 nM; on ALDH1A1 enzyme, 1000 to 10000 nM.
Turning to `O=C(c1cnc2ccc(F)cc2c1N1CCC2(CC1)OCCO2)N1CCS(=O)(=O)CC1` [Example 53, (1,1-dioxidothiomorpholino)(6-fluoro-4-(1,4-dioxa-8-azaspiro[4.5]decan-8-yl)quinolin-3-yl)methanone], the IC50 in the experiment on MIA PaCa-2 cells (Homo sapiens, 0.5 h) is > 10000 nM; at ALDH1A1 enzyme it was 500 to 1000 nM.
In the case of `CC(C)C1CCN(c2c(C(=O)N3CCN(C(=O)C4CC4)CC3)cnc3ccc(F)cc23)CC1` [Example 74, (4-(cyclopropanecarbonyl)piperazin-1-yl)(6-fluoro-4-(4-isopropylpiperidin-1-yl)quinolin-3-yl)methanone], the IC50 in the experiment with MIA PaCa-2 cells (Homo sapiens, 0.5 h) is 1000 to 10000 nM; on ALDH1A1 enzyme, < 500 nM.
The like results for `CC1(C#N)CCN(c2c(C(=O)N3CCN(S(=O)(=O)N4CCCC4)CC3)cnc3c(F)cc(F)cc23)CC1` [Example 168, 1-(6,8-difluoro-3-(4-(pyrrolidin-1-ylsulfonyl)piperazine-1-carbonyl)quinolin-4-yl)-4-methylpiperidine-4-carbonitrile] were, in that order, > 10000 nM and 1000 to 10000 nM.
The like results for `COc1ccc2ncc(C(=O)N3CCN(C(=O)C4CC4)CC3)c(N3CCC(F)(F)CC3)c2c1` [Example 44, (4-(cyclopropanecarbonyl)piperazin-1-yl)(4-(4,4-difluoropiperidin-1-yl)-6-methoxyquinolin-3-yl)methanone] were, in that order, > 10000 nM and > 10000 nM.
For the compound `COc1ccc2ncc(C(=O)N3CCN(C(=O)C4CC4)CC3)c(N3CCC(C#N)CC3)c2c1` [Example 25, 1-(3-(4-(cyclopropanecarbonyl)piperazine-1-carbonyl)-6-methoxyquinolin-4-yl)piperidine-4-carbonitrile], the IC50 in the experiment on MIA PaCa-2 cells (Homo sapiens, 0.5 h) was > 10000 nM; at ALDH1A1 enzyme it was > 10000 nM.
For the compound `CC(C)(C#N)c1ccc(-c2c(C(=O)N3CCN(S(C)(=O)=O)CC3)ccc3ccccc23)cc1` [Example 299, 2-methyl-2-(4-(2-(4-(methylsulfonyl)piperazine-1-carbonyl)naphthalen-1-yl)phenyl)propanenitrile], the concentration for half-maximal inhibition (IC50) with MIA PaCa-2 cells (Homo sapiens, 0.5 h) is < 500 nM; on ALDH1A1 enzyme, < 500 nM.
Take “4-(4-cyano-4-phenylpiperidin-1-yl)-6-fluoro-N-((1R,3R)-3-hydroxycyclobutyl)quinoline-3-carboxamide [Cpd. 330]”: the IC50 with MIA PaCa-2 cells and on ALDH1A1 enzyme was < 500 nM throughout.
As for `CC(=O)C1(c2ccccc2)CCN(c2c(C(=O)N3CCN(C(=O)C4CC4)CC3)cnc3ccc(F)cc23)CC1` [Example 215, 1-(1-(3-(4-(cyclopropanecarbonyl)piperazine-1-carbonyl)-6-fluoroquinolin-4-yl)-4-phenylpiperidin-4-yl)ethanone], the IC50 in the experiment on MIA PaCa-2 cells (Homo sapiens, 0.5 h) is 500 to 1000 nM; at ALDH1A1 enzyme it was < 500 nM.
As to `O=C(c1cnc2ccc(F)cc2c1N1CCC2(CCCC2=O)CC1)N1CCN(C(=O)C2CC2)CC1` [Example 250, 8-(3-(4-(cyclopropanecarbonyl)piperazine-1-carbonyl)-6-fluoroquinolin-4-yl)-8-azaspiro[4.5]decan-1-one], the half-inhibitory concentration (IC50) with MIA PaCa-2 cells (Homo sapiens, 0.5 h) was 1000 to 10000 nM; on ALDH1A1 enzyme, < 500 nM.
`CS(=O)(=O)C1CCN(C(=O)c2cnc3c(F)cc(F)cc3c2N2CCC3(CC2)OCCO3)CC1` [Example 186, (6,8-difluoro-4-(1,4-dioxa-8-azaspiro[4.5]decan-8-yl)quinolin-3-yl)(4-(methylsulfonyl)piperidin-1-yl)methanone]: the 50% inhibitory concentration (IC50) was 1000 to 10000 nM with MIA PaCa-2 cells (Homo sapiens, 0.5 h) and < 500 nM at ALDH1A1 enzyme.
